Test results as given in EP3891153B1, “NAPHTHALIMIDOFURANS FOR APPLICATIONS IN MOLECULAR BIOLOGY” (Univerzita Karlova, 1. Lékarská Fakulta, priority 2018, dated 2020).

Assay: UV/VIS and fluorescence studies (spectral properties of the probes in four solvents)
Assay type: physicochemical
Details: for Absorbance maxima (nm) / Emission maxima (nm): 1 µM or 0,1 µM; for fluorescence intensities: compared with probes 2 and 4 with pyranone motive
Procedure: Spectral properties of fluorescent probes 2, 4, 6, 8 and 10 (2 and 4 are for reference only) Spectral characteristics of probes were obtained by using a UV/VIS and fluorescence studies. The probes were measured in four solvents (DMSO, methanol, ethanol and phosphate buffer). Each LysoSers was at first dissolved in DMSO 1mM stock solution which was diluted to a final concentration 1 µM or 0,1 µM.
All prepared probes have absorption maximum in the ultraviolet range of 350-400 nm and emission maximum in the range of 400 to 450 nm. […] Table 1. Absorption and emission maxima of probes 2, 4, 6, 8 and 10 in different solvents (probes 2 and 4 are for reference only)

| SMILES | Absorbance maxima (nm) (solvent DMSO) | Emission maxima (nm) (solvent DMSO) | Absorbance maxima (nm) (solvent EtOH) | Emission maxima (nm) (solvent EtOH) | Absorbance maxima (nm) (solvent MeOH) | Emission maxima (nm) (solvent MeOH) | Absorbance maxima (nm) (solvent PBS) | Emission maxima (nm) (solvent PBS) | fluorescence intensities |
| --- | --- | --- | --- | --- | --- | --- | --- | --- | --- |
| CCCCCCN1C(=O)c2cccc3c2c(cc2oc(=O)c(C(=O)NCCN(C)C)cc23)C1=O [Probe 2] | 379 | 440 | 388 | 448 | 387 | 442 | 389 | 448 | – |
| CCCCCCN1C(=O)c2cccc3c2c(cc2oc(C(=O)NCCN(C)C)cc23)C1=O [Probe 6] | 373 | 424 | 376 | 422 | 373 | 421 | 373 | 429 | higher fluorescence intensities |
| CCCCCCN1C(=O)c2cccc3c2c(cc2cc(C(=O)NCCN(C)C)c(=O)oc23)C1=O [Probe 4] | 368 | 432 | 319 | 434 | 317 | 435 | 320 | 437 | – |
| CN(C)CCNC(=O)c1cc2c(cc3c4c(cccc42)C(=O)N(C)C3=O)o1 [Probe 10] | 377 | 435 | 365 | 410 | 372 | 420 | 377 | 431 | higher fluorescence intensities |
| CCCCCCN1C(=O)c2cccc3c2c(cc2cc(C(=O)NCCN(C)C)oc23)C1=O [Probe 8] | 368 | 416 | 341 | 415 | 341 | 416 | 360 | 428 | higher fluorescence intensities |
